Paper PMC12332667, “Role of Structural Modifications in Peptidomimetic Compounds as Potential Antimicrobial Agents against Staphylococcus aureus and Streptococcus pyogenes: Balancing Bioavailability, Safety, and Antimicrobial Activity” (ACS Omega, 2025)
≈ marks a conversion by molar mass, not a printed value. Where “and” joins values, the source holds several entries; their conditions need not be identical. Equal entries are not always repeated. Residues, ends and D or L forms follow the SMILES beside them.

Legend:
S. cohnii c.i. = test: MIC/MBC broth microdilution, S. cohnii; type: cell-based, Staphylococcus cohnii
How it was run: (§1)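 Standard NCCLS broth microdilution in BHI broth, inoculum approx. 10^5 CFU/mL, serially diluted peptidomimetics, 18 h at 37 °C. MIC was the lowest concentration with no obvious growth (≥90% inhibition versus untreated); MBC was the lowest giving ≤3 colonies on subculture (≥99.9% kill).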

E. faecalis c.i. = test: MIC/MBC broth microdilution, E. faecalis; type: cell-based, Enterococcus faecalis
How it was run: as §1

S. schleiferi c.i. = test: MIC/MBC broth microdilution, S. schleiferi; type: cell-based, Staphylococcus schleiferi
How it was run: as §1

S. mutans c.i. = test: MIC/MBC broth microdilution, S. mutans; type: cell-based, Streptococcus mutans
How it was run: as §1

E. coli ATCC 25922 = test: MIC/MBC broth microdilution, E. coli; type: cell-based, Escherichia coli
How it was run: as §1

P. vulgaris ATCC 6896 = test: MIC/MBC broth microdilution, P. vulgaris; type: cell-based, Proteus vulgaris
How it was run: as §1

[1] = tested on: K. pneumoniae ATCC 700603; test: MIC/MBC broth microdilution, K. pneumoniae; type: cell-based
How it was run: as §1

[2] = Hydrophobicity by reverse-phase chromatography; type: physicochemical; conditions: acetonitrile content in the mobile phase at the retention time
How it was run: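 Reverse-phase chromatography of peptidomimetics; hydrophobicity expressed as percent acetonitrile in the mobile phase at each compound's retention time.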

[3] = tested on: human dermal fibroblast cell line (46BR.1N); test: XTT cell proliferation assay, fibroblasts; type: cell-based; conditions: for effect on proliferation, in words: XTT, 48 and 72 h, 0.01–150 μg/mL
How it was run: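 Cells at 37 °C, 5% CO2 received peptidomimetics in serum-free HG-DMEM for 48 or 72 h; for 72 h, half the medium was renewed and peptide re-added at 48 h. XTT reagent was then incubated 4 h and absorbance read at 490 nm; Mann–Whitney U test, p ≤ 0.05.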

[4] = Stability / presence in human plasma; type: in vitro ADME; conditions: 24 h incubation at 37 °C
Description: Blood was drawn from healthy volunteers, and lithium/heparin holding tubes were used to remove the clot by centrifugation. The plasma was aliquoted in sterile conditions and incubated with the desired compounds for 24 h at 37 °C. The samples were prepared under sterile conditions following the previously described protocol. The samples were collected at six time points (0, 1, 2, 3, 6, and 24 h) for determining stability in water solutions, and time points of 0, 10, 20, 30, 40, 50, and 60 min, as well as of 2, 3, 6, and 24 h, for determining stability in human plasma. The analysis was performed by HPLC using a Kromasil C8 column (5 μm, 90 Å, 1.0 mm × 250 mm) monitored by a PDA or ELDS-LT II detector. For quantification, peak areas were compared to a calibration curve calculated by Shimadzu LCsolution Software (Kyoto, Japan). Graphs were prepared in GraphPad Prism (Boston, USA).

| SMILES | MBC (S. cohnii c.i.; water additive DMSO) [µg/mL] | MIC (E. faecalis c.i.; H2O) [µg/mL] | MIC (E. faecalis c.i.; water additive DMSO) [µg/mL] | MIC (S. schleiferi c.i.; H2O) [µg/mL] | MIC (S. schleiferi c.i.; water additive DMSO) [µg/mL] | MIC (S. schleiferi c.i.; water additive EtOH) [µg/mL] | MIC (S. mutans c.i.; water additive DMSO) [µg/mL] | MIC (S. mutans c.i.; water additive EtOH) [µg/mL] | MBC (E. coli ATCC 25922; H2O) [µg/mL] | MIC (E. coli ATCC 25922; H2O) [µg/mL] | MIC (E. coli ATCC 25922; water additive DMSO) [µg/mL] | MBC (E. coli ATCC 25922; water additive EtOH) [µg/mL] | MIC (E. coli ATCC 25922; water additive EtOH) [µg/mL] | MIC (P. vulgaris ATCC 6896; H2O) [µg/mL] | MIC (P. vulgaris ATCC 6896; water additive DMSO) [µg/mL] | MIC (P. vulgaris ATCC 6896; water additive EtOH) [µg/mL] | MIC ([1]; H2O) [µg/mL] | MIC ([1]; water additive DMSO) [µg/mL] | MIC ([1]; water additive EtOH) [µg/mL] | % AcCN (acetonitrile required for elution from the column) [2] | further results |
| --- | --- | --- | --- | --- | --- | --- | --- | --- | --- | --- | --- | --- | --- | --- | --- | --- | --- | --- | --- | --- | --- |
| CC(C)[C@@H](CNC(=O)C(=Cc1ccccc1)c1ccccc1)NC(=O)[C@H](Cc1c[nH]cn1)NC(=O)[C@H](CCCCNC(=N)N)NC(=O)OCc1ccccc1 [Compound A-193] | 256 (≈ 341 µM) | 256 (≈ 341 µM) | 512 (≈ 683 µM) | 8 (≈ 10.7 µM) | 4 (≈ 5.33 µM) | 8 (≈ 10.7 µM) | 8 (≈ 10.7 µM) | 8 (≈ 10.7 µM) | 256 (≈ 341 µM) | 256 (≈ 341 µM) | > 512 | 512 (≈ 683 µM) | 256 (≈ 341 µM) | > 512 | > 512 | > 512 | > 512 | > 512 | > 512 | 49.0% and 44.8–49.8% | MBC (E. faecalis c.i.; H2O): 512 µg/mL (≈ 683 µM); MBC (E. faecalis c.i.; water additive EtOH): 256 µg/mL (≈ 341 µM); MBC (S. schleiferi c.i.; H2O): 32 µg/mL (≈ 42.7 µM); MBC (S. schleiferi c.i.; water additive DMSO): 8 µg/mL (≈ 10.7 µM); MBC (S. schleiferi c.i.; water additive EtOH): 32 µg/mL (≈ 42.7 µM); MBC (S. mutans c.i.; water additive DMSO): 16 µg/mL (≈ 21.3 µM); MBC (S. mutans c.i.; water additive EtOH): 16 µg/mL (≈ 21.3 µM); antiproliferative effect (decrease vs control) ([3]; up to 150 μg/mL, A-193 and A-179 after 48 h): over 50% |
| CC(C)[C@H](NC(=O)[C@H](Cc1c[nH]cn1)NC(=O)[C@H](CCCCN)NC(=O)OCc1ccccc1)C(=O)NCCc1ccccc1 [Compound A-220] (HELM PEPTIDE1{[O=C(OCc1ccccc1)[*:2]].K.H.V.[c1ccc(CCN[*:1])cc1]}$$$$V2.0) | 512 (≈ 826 µM) | > 512 | > 512 | > 512 | > 512 | > 512 | > 512 | > 512 | 512 (≈ 826 µM) | 512 (≈ 826 µM) | > 512 | 512 (≈ 826 µM) | 512 (≈ 826 µM) | > 512 | > 512 | > 512 | > 512 | > 512 | > 512 | 42.4% | MBC (S. cohnii c.i.; H2O): 512 µg/mL (≈ 826 µM); MIC (S. cohnii c.i.; H2O): 256 µg/mL (≈ 413 µM); MIC (S. cohnii c.i.; water additive DMSO): 256 µg/mL (≈ 413 µM); MBC (S. cohnii c.i.; water additive EtOH): 512 µg/mL (≈ 826 µM); MIC (S. cohnii c.i.; water additive EtOH): 256 µg/mL (≈ 413 µM); MIC (E. faecalis c.i.; water additive EtOH): > 512 µg/mL; MBC (S. mutans c.i.; H2O): 512 µg/mL (≈ 826 µM); MIC (S. mutans c.i.; H2O): 256 µg/mL (≈ 413 µM); present in human plasma [4]: 85–90%; effect on proliferation, in words [3]: did not exert any negative impact |
| CC(C)[C@H](NC(=O)[C@H](CCCNC(=N)N)NC(=O)[C@H](CCCNC(=N)N)NC(=O)OCc1ccccc1)C(=O)NCCc1ccccc1 [Compound A-221] (HELM PEPTIDE1{[O=C(OCc1ccccc1)[*:2]].R.R.V.[c1ccc(CCN[*:1])cc1]}$$$$V2.0) | 256 (≈ 384 µM) | > 512 | > 512 | > 512 | > 512 | > 512 | > 512 | > 512 |  | > 512 | > 512 |  | > 512 | > 512 | > 512 | > 512 | > 512 | > 512 | > 512 | 43.9% | MBC (S. cohnii c.i.; H2O): 256 µg/mL (≈ 384 µM); MBC (S. cohnii c.i.; water additive EtOH): 256 µg/mL (≈ 384 µM); MIC (E. faecalis c.i.; water additive EtOH): > 512 µg/mL; MIC (S. mutans c.i.; H2O): > 512 µg/mL; present in human plasma [4]: 85–90%; effect on proliferation, in words [3]: pro-proliferating effect at lower concentrations followed by an antiproliferative effect at higher concentrations |
